Data as given in US20260034103A1, “COMPOSITIONS AND METHODS FOR IMPROVING MEMORY AND COGNITION” (priority 2022, published 2026).

Assays:
Long-Evans rats = assay: Novel object recognition test, scopolamine-induced cognitive impairment; format: in vivo, rat; conditions: scopolamine 0.1 mg/kg SC
Procedure: Total exploration time of two identical objects in the acquisition trial was measured manually and indicated as the mean±SEM (n=8). No statistical difference was found in the total exploration time among the different groups by one-way ANOVA (P=0.115).
(§1) NDI was calculated using the following equation: novel object interaction time/total interaction time×100(%). Data are represented as the mean±SEM (n=8). Significant difference from control group was indicated by ***P<0.001 (Student's t-test). Significant differences from scopolamine-treated vehicle group were indicated by ##P<0.01 (Dunnett test). Significant difference from scopolamine-treated vehicle group were indicated by †††P<0.001 (Student's t-test).
Exploration time of each object in retention trial was measured manually and presented as the mean±SEM (n=8). Significant differences from familiar object interaction were indicated by **P<0.01, *P<0.05 (paired t-test).
A novel object recognition test (which evaluates visual learning and memory) was conducted to investigate the effect of compound 1 on scopolamine-induced cognitive impairment in Long-Evans rats. Donepezil was used as a positive control. Scopolamine at 0.1 mg/kg SC reduced the novelty discrimination index (NDI) a measure of cognitive function (FIGS. 4-6).

Wistar rats = assay: Novel object recognition test, subchronic PCP-induced cognitive impairment; format: in vivo, rat; conditions: PCP 5 mg/kg twice daily for 7 days IP
Procedure: The total exploration time of two identical objects in the acquisition trial was measured manually and indicated as the mean±SEM (n=10). No statistical difference was found in the total exploration time among the different groups by one-way ANOVA (P=0.340).
as §1, with “(n=10).” for “(n=8).”, “PCP-treated” for “scopolamine-treated vehicle”, “##P<0.01, #P<0.05” for “##P<0.01”, “††P<0.01” for “†††P<0.001”
Exploration time of each object in retention trial was measured manually and presented as the mean±SEM (n=10). Significant differences from familiar object interaction were indicated by ***P<0.001, **P<0.01 (paired t-test).
A novel object recognition test was conducted to investigate the effect of SP-624 on subchronic PCP-induced cognitive impairment in Wistar rats. Clozapine was used as a positive control.

Structure (SMILES) | novelty discrimination index (NDI) (Long-Evans rats) | NDI compared with sub-chronic vehicle treatment (Wistar rats)
CN1[C@@H]2C[C@@H](OC(=O)[C@H](CO)c3ccccc3)C[C@H]1[C@@H]1O[C@@H]12 [Scopolamine, reference compound] | reduced | 
c1ccc(C2(N3CCCCC3)CCCCC2)cc1 [PCP, reference compound] |  | significantly decreased
